According to patent publication US9926297B2, “Bicyclic AZA compounds as muscarinic M1 receptor and/or M4 receptor agonists” (Heptares Therapeutics Limited, priority 2014, dated 2018):

Columns and labels:
[1] = target: human muscarinic M3 receptor (Homo sapiens, UniProt P20309); experiment: Alphascreen Surefire phospho-ERK1/2 functional assay, M3; conditions: for Emax: CHO, read-out: % Emax cf. ACh, M3, CHO cells stably expressing human M3, relative to ACh; for EC50: pEC50 M3, CHO cells stably expressing human M3, phospho-ERK1/2, * = variable results
[2] = target: T1, human muscarinic M2 receptor (Homo sapiens, UniProt P08172); experiment: Alphascreen Surefire phospho-ERK1/2 functional assay, M2; conditions: for Emax: CHO, read-out: % Emax cf. ACh, M2, CHO cells stably expressing human M2, relative to ACh
T1 sequence (P08172 1-466): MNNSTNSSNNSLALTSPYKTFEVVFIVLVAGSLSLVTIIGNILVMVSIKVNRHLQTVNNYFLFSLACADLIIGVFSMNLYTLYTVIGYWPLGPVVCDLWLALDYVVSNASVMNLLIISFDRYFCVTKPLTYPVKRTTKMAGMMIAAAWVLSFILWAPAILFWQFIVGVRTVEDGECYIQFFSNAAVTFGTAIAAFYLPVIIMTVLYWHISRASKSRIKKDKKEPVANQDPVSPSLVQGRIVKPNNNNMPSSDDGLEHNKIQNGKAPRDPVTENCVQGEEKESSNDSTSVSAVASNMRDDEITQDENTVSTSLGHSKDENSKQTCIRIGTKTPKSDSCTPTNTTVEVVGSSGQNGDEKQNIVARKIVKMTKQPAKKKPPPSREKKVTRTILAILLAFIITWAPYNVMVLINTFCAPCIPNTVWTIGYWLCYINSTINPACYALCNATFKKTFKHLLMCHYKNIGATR

[3] = target: T2, human muscarinic M4 receptor (Homo sapiens, UniProt P08173); experiment: Alphascreen Surefire phospho-ERK1/2 functional assay, M4; format: cell-based; conditions: for EC50: CHO cells stably expressing human M4, phospho-ERK1/2, * = variable results, read-out: pEC50 M4 (converted); for Emax: CHO, read-out: % Emax cf. ACh, M4, CHO cells stably expressing human M4, relative to ACh
T2 construct: expressed in transfected cells
T2 sequence (P08173 1-479): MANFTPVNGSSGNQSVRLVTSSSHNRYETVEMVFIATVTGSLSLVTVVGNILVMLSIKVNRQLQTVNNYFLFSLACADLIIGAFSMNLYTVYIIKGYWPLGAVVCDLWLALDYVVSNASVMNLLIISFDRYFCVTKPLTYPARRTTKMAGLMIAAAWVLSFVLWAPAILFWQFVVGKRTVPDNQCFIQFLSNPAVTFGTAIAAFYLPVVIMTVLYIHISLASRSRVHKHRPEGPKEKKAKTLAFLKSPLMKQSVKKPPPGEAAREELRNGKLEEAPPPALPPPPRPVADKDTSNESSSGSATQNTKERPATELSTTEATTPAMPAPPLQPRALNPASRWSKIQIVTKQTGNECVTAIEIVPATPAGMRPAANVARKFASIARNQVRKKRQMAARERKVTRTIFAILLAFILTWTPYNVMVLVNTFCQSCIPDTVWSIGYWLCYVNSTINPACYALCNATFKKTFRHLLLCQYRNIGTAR

[4] = target: T3, human muscarinic M1 receptor (Homo sapiens, UniProt P11229); experiment: Alphascreen Surefire phospho-ERK1/2 functional assay, M1; format: cell-based; conditions: for EC50: CHO cells stably expressing human M1, phospho-ERK1/2, * = variable results, read-out: pEC50 M1 (converted); for Emax: CHO, read-out: % Emax cf. ACh, M1, CHO cells stably expressing human M1, relative to ACh
T3 sequence (P11229 1-460): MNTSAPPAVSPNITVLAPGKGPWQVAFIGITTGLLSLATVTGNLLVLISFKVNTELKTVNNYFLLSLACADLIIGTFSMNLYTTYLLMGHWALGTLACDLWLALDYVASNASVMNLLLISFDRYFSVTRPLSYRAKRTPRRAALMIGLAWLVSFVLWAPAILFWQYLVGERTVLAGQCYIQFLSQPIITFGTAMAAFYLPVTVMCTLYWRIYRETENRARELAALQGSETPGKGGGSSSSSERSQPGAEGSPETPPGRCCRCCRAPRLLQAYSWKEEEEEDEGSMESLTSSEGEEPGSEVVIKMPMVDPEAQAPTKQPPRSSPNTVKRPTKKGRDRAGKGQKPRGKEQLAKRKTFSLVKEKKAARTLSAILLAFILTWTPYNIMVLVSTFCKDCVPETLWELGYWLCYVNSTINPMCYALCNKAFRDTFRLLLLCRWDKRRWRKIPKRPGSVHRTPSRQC

Chain of human muscarinic M3 receptor (P20309 whole entry): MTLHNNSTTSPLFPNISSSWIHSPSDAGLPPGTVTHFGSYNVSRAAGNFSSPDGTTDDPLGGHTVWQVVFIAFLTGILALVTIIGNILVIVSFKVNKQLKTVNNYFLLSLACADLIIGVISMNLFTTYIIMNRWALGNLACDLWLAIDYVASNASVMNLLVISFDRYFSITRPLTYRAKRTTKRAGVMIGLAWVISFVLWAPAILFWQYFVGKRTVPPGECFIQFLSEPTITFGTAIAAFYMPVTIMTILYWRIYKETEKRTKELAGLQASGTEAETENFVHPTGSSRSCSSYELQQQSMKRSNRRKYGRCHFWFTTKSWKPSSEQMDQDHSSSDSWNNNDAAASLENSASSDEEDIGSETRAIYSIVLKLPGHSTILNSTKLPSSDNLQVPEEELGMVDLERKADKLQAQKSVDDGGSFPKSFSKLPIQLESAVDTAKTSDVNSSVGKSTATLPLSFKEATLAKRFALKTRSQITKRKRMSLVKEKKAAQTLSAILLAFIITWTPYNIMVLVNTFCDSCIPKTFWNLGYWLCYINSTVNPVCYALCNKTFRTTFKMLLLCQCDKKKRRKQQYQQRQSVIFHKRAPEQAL

Row | SMILES | Emax [1] [%] | EC50 [1] [nM] | EC50 [2] [nM] | Emax [2] [%] | EC50 [3] [nM] | Emax [3] [%] | EC50 [4] [nM] | Emax [4] [%]
1 | CCOC(=O)N1CCC2(CC(N3CCC(C4CCCN4C(=O)N(C)C)CC3)C2)C1 (single isomer, unassigned) [2-20 Isomer 2, ethyl 2-{4-[1-(dimethylcarbamoyl)pyrrolidin-2-yl]piperidin-1-yl}-6-azaspiro[3.4]octane-6-carboxylate] | 6 | > 20000 | > 20000 | 1 | 31.6 | 106 | > 20000 | 24
2 | CCOC(=O)N1CCC2(CC(N3CCC([C@@H]4CCCN4CCF)CC3)C2)C1 (single isomer, unassigned) [2-68 Isomer 2] | 6 | > 20000 | > 20000 | 4 | 63.1 | 73 | 1000 | 32
3 | CCOC(=O)N1CCC2(CC(N3CCC([C@@H]4CCCN4c4ccccn4)CC3)C2)C1 (single isomer, unassigned) [2-79 Isomer 2] | 19 | > 20000 | > 20000 | 2 | 31.6 | 70 | 501 | 37
4 | CCOC(=O)N1CCC2(CC(N3CCC([C@@H]4CCCN4C(=O)NCCF)CC3)C2)C1 (single isomer, unassigned) [2-44 Isomer 2] | 8 | > 20000 | > 20000 | 4 | 5.01 | 100 | 316 | 71
5 | CCOC(=O)N1CCC2(CC(N3CCC([C@@H]4CCCN4C(=O)OCCOC)CC3)C2)C1 (single isomer, unassigned) [2-50 Isomer 2] | 2 | > 20000 | > 20000 | 4 | 25.1 | 73 | 251 | 63

The next lines start with the values.

Row | Emax [1] [%] | EC50 [1] [nM] | EC50 [2] [nM] | Emax [2] [%] | EC50 [3] [nM] | Emax [3] [%] | EC50 [4] [nM] | Emax [4] [%] | SMILES
6 | 5 | > 20000 | > 20000 | 3 | 25.1 | 63 | > 20000 | 7 | CCOC(=O)N1CCC2(CC(N3CCC([C@@H]4CCCN4C(=O)N4CCOCC4)CC3)C2)C1 (single isomer, unassigned) [2-28 Isomer 2]
7 | 4 | > 20000 | > 20000 | 5 | 3.16 | 116 | 200 | 72 | CCOC(=O)N1CCC2(CC(N3CCC([C@@H]4CCCN4C(=O)NC)CC3)C2)C1 (single isomer, unassigned) [2-17 Isomer 2]
8 | 2 | > 20000 | > 20000 | 1 | 25.1 | 97 | 316 | 66 | CCOC(=O)N1CCC2(CC(N3CCC(n4nccn4)CC3)C2)C1 (single isomer, unassigned) [1-61 Isomer 2, ethyl 2-[4-(2H-1,2,3-triazol-2-yl)piperidin-1-yl]-6-azaspiro[3.4]octane-6-carboxylate]
9 | 9 | > 20000 | > 20000 | 16 | 63.1 | 49 | > 20000 | 19 | CCOC(=O)N1CCC2(CC(N3CCC(N4CCC[C@]4(C)C(=O)OC)CC3)C2)C1 (single isomer, unassigned) [2-95 Isomer 2]
10 | 15 | > 20000 | > 20000 | 11 | 126 | 128 | 1000 | 85 | CCOC(=O)N1CCC2(CC(N3CCC(c4nc(C)cn4C)CC3)C2)C1 (single isomer, unassigned) [1-12 Isomer 2, ethyl 2-[4-(1,4-dimethyl-1H-imidazol-2-yl)piperidin-1-yl]-6-azaspiro[3.4]octane-6-carboxylate]
